Laboratory results: patent US9492471B2, “Methods of treating a disease or disorder associated with Bruton'S Tyrosine Kinase” (Celgene Avilomics Research, Inc., priority 2013, dated 2016)
Like-named read-outs stand apart in the source and are kept apart here.

Assays:
Assay in all cases: HotSpot kinase profiling
Assay type in all cases: biochemical
[1] = molecular target: T1, VRK1 (Homo sapiens, UniProt Q99986)
T1 construct: purchased Reaction Biology Corp
T1 sequence (Q99986 1-396): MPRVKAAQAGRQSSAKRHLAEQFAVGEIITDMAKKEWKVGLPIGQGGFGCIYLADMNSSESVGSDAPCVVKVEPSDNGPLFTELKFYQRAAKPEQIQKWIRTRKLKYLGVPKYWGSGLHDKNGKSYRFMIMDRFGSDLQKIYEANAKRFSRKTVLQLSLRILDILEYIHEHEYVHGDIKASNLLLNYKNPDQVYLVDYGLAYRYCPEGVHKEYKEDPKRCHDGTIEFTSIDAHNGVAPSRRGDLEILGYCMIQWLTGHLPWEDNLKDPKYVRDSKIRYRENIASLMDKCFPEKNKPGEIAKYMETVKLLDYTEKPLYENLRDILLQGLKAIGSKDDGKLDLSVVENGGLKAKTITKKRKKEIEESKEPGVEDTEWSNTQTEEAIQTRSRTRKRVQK
Method: (§1) The binding assay system for profiling kinase activity were based upon HotSpot technology (Reaction Biology Corp.; Malvern, Pa., USA) and utilized radio-isotope-based P81 filtration. […] Substrates for the various kinases tested against Compound 2 (substrate information available on the Reaction Biology Corp. website) were prepared fresh daily in Reaction Buffer. Any required cofactors were then added to the substrate solution. The identification and selection of the appropriate cofactor for each kinase is within the ability of a person skilled in the art. See, for example, Handbook of Assay Development in Drug Discovery, Ed. Lisa K. Minor, 2006: CRC Press, Boca Raton, Fla.; Gao et al., “A broad activity screen in support of a chemogenomic map for kinase signalling research and drug discovery,” Biochem J. 2013, 451(2): 313-28; and Eglen et al., “Drug discovery and the human kinome: Recent trends,” Pharmacology & Therapeutics 2011, 130(2): 144-156. The kinase was then added to the substrate solution and gently mixed. […] This was followed by incubation at room temperature for 2 h. The reaction was terminated and any unreacted phosphate was washed away using 0.1% phosphoric acid prior to detection utilizing a proprietary technology. […] DMSO was used as the negative control.
(§2) Percent inhibition was expressed as an average where the assay was performed more than once, e.g., in duplicate.

[2] = molecular target: T2, CDK7/cyclin H (Homo sapiens, UniProt P50613)
T2 construct: purchased Reaction Biology Corp
Method: as §1, §2

[3] = molecular target: T3, PLK4/SAK (Homo sapiens, UniProt O00444)
T3 construct: purchased Reaction Biology Corp
T3 sequence (O00444 1-970): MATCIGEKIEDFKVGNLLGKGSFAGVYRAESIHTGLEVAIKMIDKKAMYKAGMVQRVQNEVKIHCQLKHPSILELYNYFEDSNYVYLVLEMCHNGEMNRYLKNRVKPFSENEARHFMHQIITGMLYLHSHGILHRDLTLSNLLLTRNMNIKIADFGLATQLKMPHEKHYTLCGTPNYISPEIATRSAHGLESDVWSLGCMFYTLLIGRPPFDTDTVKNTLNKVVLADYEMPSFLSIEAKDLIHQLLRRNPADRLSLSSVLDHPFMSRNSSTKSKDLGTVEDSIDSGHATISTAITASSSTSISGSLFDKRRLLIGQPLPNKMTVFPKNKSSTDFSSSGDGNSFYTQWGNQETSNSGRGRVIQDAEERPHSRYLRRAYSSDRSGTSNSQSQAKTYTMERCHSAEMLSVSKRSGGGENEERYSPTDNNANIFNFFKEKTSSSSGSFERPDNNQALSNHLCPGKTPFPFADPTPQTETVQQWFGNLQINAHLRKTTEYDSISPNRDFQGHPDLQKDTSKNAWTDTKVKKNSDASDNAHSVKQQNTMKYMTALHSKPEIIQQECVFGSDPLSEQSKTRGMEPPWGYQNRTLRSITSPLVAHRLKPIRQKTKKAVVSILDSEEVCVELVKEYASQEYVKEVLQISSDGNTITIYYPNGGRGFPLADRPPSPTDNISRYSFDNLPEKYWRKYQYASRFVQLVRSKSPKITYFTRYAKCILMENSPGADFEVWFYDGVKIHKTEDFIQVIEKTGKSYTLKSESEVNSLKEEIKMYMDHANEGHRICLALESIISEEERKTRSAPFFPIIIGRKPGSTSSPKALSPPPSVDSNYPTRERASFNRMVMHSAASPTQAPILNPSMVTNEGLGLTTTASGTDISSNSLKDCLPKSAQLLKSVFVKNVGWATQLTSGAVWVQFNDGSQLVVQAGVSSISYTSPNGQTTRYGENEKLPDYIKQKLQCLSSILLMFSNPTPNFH
Method: as §1, §2

[4] = molecular target: T4, MST2/STK3 (Homo sapiens, UniProt Q13188)
T4 construct: purchased Reaction Biology Corp
T4 sequence (Q13188 1-491): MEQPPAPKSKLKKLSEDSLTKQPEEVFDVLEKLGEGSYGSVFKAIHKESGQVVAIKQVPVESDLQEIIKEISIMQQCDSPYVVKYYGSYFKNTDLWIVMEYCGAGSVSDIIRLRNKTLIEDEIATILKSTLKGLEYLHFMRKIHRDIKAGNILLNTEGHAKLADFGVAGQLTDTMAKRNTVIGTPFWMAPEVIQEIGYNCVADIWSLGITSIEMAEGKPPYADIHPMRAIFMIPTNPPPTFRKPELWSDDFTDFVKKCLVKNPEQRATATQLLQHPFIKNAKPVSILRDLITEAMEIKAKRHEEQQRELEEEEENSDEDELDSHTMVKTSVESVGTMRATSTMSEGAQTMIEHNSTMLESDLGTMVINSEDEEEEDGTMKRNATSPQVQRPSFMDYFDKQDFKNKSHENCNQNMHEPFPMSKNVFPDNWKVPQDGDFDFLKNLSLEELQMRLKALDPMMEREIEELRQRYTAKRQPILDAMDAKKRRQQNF
Method: as §1, §2

[5] = molecular target: T5, FYN (Homo sapiens, UniProt P06241)
T5 construct: purchased Reaction Biology Corp
Method: as §1, §2

[6] = molecular target: T6, MELK (Homo sapiens, UniProt Q14680)
T6 construct: purchased Reaction Biology Corp
Method: as §1, §2

[7] = molecular target: T7, WNK2 (Homo sapiens, UniProt Q9Y3S1)
T7 construct: purchased Reaction Biology Corp
Method: as §1, §2

[8] = read-out: % Enzyme Activity (relative to DMSO controls) Run 1
[9] = read-out: % Enzyme Activity (relative to DMSO controls) Run 2

T6 sequence (Q14680 whole entry): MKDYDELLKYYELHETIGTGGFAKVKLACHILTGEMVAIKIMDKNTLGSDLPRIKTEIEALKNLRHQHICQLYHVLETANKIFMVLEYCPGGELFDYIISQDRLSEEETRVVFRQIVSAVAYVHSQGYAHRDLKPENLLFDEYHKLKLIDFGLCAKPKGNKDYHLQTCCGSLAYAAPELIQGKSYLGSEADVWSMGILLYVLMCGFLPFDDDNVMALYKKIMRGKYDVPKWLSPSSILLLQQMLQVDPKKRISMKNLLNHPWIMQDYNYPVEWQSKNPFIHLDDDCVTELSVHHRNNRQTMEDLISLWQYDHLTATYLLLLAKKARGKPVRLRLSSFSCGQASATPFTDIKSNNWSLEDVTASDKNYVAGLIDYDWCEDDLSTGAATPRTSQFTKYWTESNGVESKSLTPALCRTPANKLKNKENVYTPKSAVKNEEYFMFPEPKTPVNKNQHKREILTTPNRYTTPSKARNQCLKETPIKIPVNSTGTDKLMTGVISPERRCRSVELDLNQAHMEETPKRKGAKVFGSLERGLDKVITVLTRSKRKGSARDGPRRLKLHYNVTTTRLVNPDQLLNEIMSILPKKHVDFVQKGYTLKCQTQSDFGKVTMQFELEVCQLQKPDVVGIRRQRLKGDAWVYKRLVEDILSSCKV
T2 sequence (P50613 whole entry): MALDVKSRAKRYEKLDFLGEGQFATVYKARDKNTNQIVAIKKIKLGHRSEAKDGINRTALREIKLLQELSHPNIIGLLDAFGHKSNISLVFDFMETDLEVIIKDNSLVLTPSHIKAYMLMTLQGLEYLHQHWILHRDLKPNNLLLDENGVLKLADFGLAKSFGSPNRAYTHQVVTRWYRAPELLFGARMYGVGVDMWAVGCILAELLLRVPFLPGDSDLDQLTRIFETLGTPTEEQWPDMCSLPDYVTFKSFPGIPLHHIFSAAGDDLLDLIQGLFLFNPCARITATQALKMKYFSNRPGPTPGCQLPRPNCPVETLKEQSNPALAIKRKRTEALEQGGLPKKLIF
T2 sequence (P51946 whole entry partner): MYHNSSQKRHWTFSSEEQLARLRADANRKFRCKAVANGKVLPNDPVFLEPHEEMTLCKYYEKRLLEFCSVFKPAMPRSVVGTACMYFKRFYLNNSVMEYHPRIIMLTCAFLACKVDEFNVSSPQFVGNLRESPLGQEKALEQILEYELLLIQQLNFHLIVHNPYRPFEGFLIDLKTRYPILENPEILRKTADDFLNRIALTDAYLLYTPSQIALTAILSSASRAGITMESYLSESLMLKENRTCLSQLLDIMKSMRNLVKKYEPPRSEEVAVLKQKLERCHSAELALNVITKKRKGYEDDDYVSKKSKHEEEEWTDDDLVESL
T2 sequence (P51948 whole entry partner): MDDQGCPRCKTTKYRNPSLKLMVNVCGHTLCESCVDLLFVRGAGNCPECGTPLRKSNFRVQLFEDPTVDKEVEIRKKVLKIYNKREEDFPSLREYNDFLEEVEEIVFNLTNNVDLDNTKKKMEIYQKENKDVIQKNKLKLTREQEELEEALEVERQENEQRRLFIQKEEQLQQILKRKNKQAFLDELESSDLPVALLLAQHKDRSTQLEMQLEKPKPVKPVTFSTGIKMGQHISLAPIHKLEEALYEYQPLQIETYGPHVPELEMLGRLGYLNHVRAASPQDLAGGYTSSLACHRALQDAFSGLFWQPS
T5 sequence (P06241 whole entry): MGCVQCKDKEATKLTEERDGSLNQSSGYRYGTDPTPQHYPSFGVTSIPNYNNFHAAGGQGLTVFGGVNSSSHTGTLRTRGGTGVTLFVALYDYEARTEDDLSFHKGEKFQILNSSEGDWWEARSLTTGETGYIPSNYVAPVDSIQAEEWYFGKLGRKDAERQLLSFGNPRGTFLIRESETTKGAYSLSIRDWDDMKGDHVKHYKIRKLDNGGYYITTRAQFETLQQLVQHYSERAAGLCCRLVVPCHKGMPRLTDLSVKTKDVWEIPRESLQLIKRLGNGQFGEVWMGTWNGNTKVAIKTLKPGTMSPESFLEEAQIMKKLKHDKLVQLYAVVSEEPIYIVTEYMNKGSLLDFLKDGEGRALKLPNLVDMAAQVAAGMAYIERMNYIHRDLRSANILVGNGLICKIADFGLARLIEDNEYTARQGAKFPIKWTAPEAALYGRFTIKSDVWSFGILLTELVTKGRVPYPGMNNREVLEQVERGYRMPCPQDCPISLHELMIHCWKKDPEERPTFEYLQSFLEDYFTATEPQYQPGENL
T7 sequence (Q9Y3S1 whole entry): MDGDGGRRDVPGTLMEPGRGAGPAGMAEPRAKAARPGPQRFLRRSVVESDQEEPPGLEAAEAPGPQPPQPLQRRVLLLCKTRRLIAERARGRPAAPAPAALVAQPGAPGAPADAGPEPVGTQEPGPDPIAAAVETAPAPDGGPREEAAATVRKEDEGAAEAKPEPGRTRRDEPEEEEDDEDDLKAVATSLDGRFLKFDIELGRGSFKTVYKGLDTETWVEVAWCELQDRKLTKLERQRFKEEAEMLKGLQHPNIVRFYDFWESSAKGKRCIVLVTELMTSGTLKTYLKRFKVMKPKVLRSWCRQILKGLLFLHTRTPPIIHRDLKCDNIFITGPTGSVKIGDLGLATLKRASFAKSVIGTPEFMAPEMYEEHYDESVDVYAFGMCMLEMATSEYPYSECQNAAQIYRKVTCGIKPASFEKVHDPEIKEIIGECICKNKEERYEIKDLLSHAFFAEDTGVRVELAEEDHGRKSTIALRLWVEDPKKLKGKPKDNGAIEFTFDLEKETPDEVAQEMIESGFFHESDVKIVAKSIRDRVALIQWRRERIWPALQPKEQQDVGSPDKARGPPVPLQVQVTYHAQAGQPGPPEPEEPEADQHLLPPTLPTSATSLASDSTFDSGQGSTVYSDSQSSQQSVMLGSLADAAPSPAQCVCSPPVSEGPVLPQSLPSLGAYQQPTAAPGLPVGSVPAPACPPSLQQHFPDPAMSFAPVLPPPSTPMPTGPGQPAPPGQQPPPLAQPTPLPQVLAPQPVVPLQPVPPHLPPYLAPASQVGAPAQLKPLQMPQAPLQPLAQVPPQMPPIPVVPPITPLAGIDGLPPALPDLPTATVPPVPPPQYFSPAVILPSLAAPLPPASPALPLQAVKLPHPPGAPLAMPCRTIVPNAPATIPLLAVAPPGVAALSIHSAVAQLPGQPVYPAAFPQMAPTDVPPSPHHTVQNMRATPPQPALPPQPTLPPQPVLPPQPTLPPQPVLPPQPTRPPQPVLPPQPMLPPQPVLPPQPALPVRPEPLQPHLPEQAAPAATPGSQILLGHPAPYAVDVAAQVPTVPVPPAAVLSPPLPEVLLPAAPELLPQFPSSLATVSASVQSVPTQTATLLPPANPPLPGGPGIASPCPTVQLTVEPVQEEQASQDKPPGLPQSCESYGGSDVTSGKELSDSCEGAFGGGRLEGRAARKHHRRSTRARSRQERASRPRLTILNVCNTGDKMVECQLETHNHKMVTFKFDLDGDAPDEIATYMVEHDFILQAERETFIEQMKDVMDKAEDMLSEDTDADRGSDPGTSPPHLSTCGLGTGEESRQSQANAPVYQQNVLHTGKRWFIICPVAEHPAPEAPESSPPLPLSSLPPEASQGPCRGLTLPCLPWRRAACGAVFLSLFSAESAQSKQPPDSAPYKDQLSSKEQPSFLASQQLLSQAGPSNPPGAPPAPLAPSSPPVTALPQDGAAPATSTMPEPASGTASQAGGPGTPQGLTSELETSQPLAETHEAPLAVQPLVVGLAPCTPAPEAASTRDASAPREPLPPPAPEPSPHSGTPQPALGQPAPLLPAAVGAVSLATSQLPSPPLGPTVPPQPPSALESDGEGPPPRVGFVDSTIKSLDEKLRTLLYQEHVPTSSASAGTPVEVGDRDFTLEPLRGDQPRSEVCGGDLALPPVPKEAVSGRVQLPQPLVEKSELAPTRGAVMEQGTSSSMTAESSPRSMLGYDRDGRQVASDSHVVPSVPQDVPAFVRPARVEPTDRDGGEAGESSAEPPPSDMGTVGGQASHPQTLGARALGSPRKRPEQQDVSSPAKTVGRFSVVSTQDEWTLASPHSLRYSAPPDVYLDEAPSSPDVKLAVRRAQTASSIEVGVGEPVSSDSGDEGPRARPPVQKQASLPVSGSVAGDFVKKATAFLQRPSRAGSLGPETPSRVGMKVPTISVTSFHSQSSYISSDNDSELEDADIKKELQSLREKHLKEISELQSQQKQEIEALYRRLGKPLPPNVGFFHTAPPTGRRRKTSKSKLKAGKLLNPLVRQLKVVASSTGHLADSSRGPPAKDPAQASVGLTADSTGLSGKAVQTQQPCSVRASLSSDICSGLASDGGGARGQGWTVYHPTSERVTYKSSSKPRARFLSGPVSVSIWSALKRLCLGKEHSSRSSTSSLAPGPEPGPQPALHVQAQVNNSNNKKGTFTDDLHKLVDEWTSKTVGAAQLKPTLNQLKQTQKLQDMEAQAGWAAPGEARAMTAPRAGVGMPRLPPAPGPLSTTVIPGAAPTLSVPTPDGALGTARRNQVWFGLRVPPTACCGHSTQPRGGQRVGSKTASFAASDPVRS

C=CC(=O)Nc1cccc(Nc2nc(Nc3ccc(OCCOC)c(F)c3)ncc2F)c1 [Compound 2]
inhibition at 3 µM [1]: 12.9% | remaining activity at 3 µM [1, 8]: 84.3% | remaining activity at 3 µM [1, 9]: 89.9% | inhibition at 3 µM [2]: 2.36% | remaining activity at 3 µM [2, 8]: 98.1% | remaining activity at 3 µM [2, 9]: 97.2% | inhibition at 3 µM [3]: 45% | remaining activity at 3 µM [3, 8]: 54.8% | remaining activity at 3 µM [3, 9]: 55.2% | inhibition at 3 µM [4]: 10.1% | remaining activity at 3 µM [4, 8]: 91.1% | remaining activity at 3 µM [4, 9]: 88.6% | inhibition at 3 µM [5]: 18.5% | remaining activity at 3 µM [5, 8]: 81.1% | remaining activity at 3 µM [5, 9]: 81.8% | inhibition at 3 µM [6]: -8.07% | remaining activity at 3 µM [6, 8]: 109% | remaining activity at 3 µM [6, 9]: 107% | inhibition at 3 µM [7]: 6.19% | remaining activity at 3 µM [7, 8]: 92.3% | remaining activity at 3 µM [7, 9]: 95.3%
